Reference: BindingDB's records for doi:10.1111/j.1747-0285.2009.00924.x (Nankai University, 2010)

Molecular target: T1, Ketol-acid reductoisomerase (NADP(+)) (Escherichia coli (strain K12), UniProt P05793)
T1 sequence (P05793 whole entry): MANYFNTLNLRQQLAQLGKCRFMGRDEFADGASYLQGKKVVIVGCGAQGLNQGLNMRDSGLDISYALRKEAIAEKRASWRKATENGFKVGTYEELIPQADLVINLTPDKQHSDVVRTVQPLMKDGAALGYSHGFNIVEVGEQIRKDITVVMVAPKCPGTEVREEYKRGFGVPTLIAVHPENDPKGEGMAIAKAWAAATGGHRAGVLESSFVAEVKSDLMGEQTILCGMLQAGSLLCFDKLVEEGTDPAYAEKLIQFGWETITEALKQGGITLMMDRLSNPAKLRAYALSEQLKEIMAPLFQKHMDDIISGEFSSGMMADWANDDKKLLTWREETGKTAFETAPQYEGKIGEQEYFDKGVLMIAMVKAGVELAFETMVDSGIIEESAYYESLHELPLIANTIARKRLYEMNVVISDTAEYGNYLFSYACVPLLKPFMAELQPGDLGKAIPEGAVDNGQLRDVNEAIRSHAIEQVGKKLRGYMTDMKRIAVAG
Test: Enzyme Inhibition Assay
Details: pH 8; 30 °C
Experimental: Inhibition of E. coli KARI (ketol-acid reductoisomerase) is time dependent, and activity was measured by the decrease in A340 at 30 C in solutions containing 0.2 mM […], 1 mM MgCl2, substrate 2-acetolactate and inhibitor in 0.1 M phosphate buffer at pH 8.0.

SMILES | Ki [µM]
O=C(O)C1(C(=O)O)CC1 [Cyclopropane, 3] | 76.6
CC(C)N(O)C(=O)C(=O)O [N-hydroxy-N-isopropyloxamate, IpOHA] | 2.75
NC(=O)C1(C(=O)O)CC1 [Cyclopropane, 5] | 31.2
N#CC1(C(=O)O)CC1 [Cyclopropane, 4] | 95.3
